PMC4459817, “Vasculotide reduces endothelial permeability and tumor cell extravasation in the absence of binding to or agonistic activation of Tie2” (EMBO Molecular Medicine, 2015)

B1: recombinant human Ang1 (rhAng1) (ligand, UniProt Q15389 16-498, looked up)
chain: HIGCSNQRRSPENSGRRYNRIQHGQCAYTFILPEHDGNCRESTTDQYNTNALQRDAPHVEPDFSSQKLQHLEHVMENYTQWLQKLENYIVENMKSEMAQIQQNAVQNHTATMLEIGTSLLSQTAEQTRKLTDVETQVLNQTSRLEIQLLENSLSTYKLEKQLLQQTNEILKIHEKNSLLEHKILEMEGKHKEELDTLKEEKENLQGLVTRQTYIIQELEKQLNRATTNNSVLQKQQLELMDTVHNLVNLCTKEGVLLKGGKREEEKPFRDCADVYQAGFNKSGIYTIYINNMPEPKKVFCNMDVNGGGWTVIQHREDGSLDFQRGWKEYKMGFGNPSGEYWLGNEFIFAITSQRQYMLRIELMDWEGNRAYSQYDRFHIGNEKQNYRLYLKGHTGTAGKQSSLILHGADFSTKDADNDNCMCKCALMLTGGWWFDACGPSNLNGMFYTAGQNHGKLNGIKWHYFKGPSYSLRSTTMMIRPLDF
notes: angiopoietin-1, human, recombinant; also called angiopoietin-1; source: bought: R&D Systems (named for the Boyden chamber experiments)

Test system: mouse Tie2-Fc (extracellular domain of Tie2)
Assay: pull-down assay, mouse Tie2-Fc
Type: binding
Conditions: mouse Tie2-Fc on protein A sepharose; rhAng1 20 ng or VT 100 ng, pH 7.4, 4°C; Fig9A,B
Description: To better understand the difficulties we had in observing Tie2 activation by VT, we sought to characterize the binding affinity and kinetics of VT to Tie2. Purified human or mouse Tie2-Fc (i.e., Fc-conjugated extracellular domains of Tie2) were first coupled to protein A sepharose beads for pull-down experiments (Fig9A and B) or immobilized on a Biacore CM5 sensor chip for surface plasmon resonance (SPR) experiments (Fig9C and Supplementary Fig S3).
Figure 9 Binding of Vasculotide vs. Ang1 variants to the extracellular domain of Tie2 • A–B Pull-down assay. Input ligands—rhAng1 (A) and VT (B)—were incubated with either protein A sepharose beads only, bead-conjugated mouse Tie2-Fc (mTie2), or bead-conjugated human Tie2-Fc (hTie2). […] The ‘unbound’ fraction is 7% of residual/free ligands remaining in the supernatant. • C Quantitative kinetics analysis by SPR. All analytes were run at increasing concentrations of 0.625, 1.25, 2.5, 5, and 10 nM, at 37°C and pH 7.4. […] Source data are available online for this figure. […]
Semi-quantitative densitometry analysis of immunoblots was performed using the ChemiGenius2 bioimaging system and GeneSnap/GeneTools software (Syngene). […]

Row | Molecule | pull-down by Tie2-Fc
1 | CHHHRHSF [Vasculotide, 4-armed maleimide-functionalized polyethylene glycol (PEG) backbone to link together four cysteine-capped T7 peptides, that is, CHHHRHSF] | did not pull down any appreciable levels
2 | B1 | effectively pulled down the majority
